# In ChEMBL document CHEMBL1201862, “PubChem BioAssay data set” (2004):
#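 Compound exposure: 48 hours, 5 concentrations, 96-well plates. Here, GI50 denotes the concentration required for 50% inhibition of growth.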 Active and inactive are the calls of the source. Rule as the data show it: active = GI50 up to about 1.1 µM and inactive = higher.
# Key:
# Assay in all cases: DTP human tumour cell line panel, 48 h
# Hs-578T = system: Hs-578T
# KM12 = system: KM12
# SNB-75 = system: SNB-75
# NCI/ADR-RES = system: NCI/ADR-RES
# NCI-H226 = system: NCI-H226
# HOP-92 = system: HOP-92
# K562 = system: K562
# M14 = system: M14
# LOX IMVI = system: LOX IMVI
# IGROV-1 = system: IGROV-1
# SN12C = system: SN12C
# SK-MEL-5 = system: SK-MEL-5
# OVCAR-4 = system: OVCAR-4
# ACHN = system: ACHN
# HCC 2998 = system: HCC 2998
# MCF7 = system: MCF7
# NCI-H23 = system: NCI-H23
# Malme-3M = system: Malme-3M
# SK-OV-3 = system: SK-OV-3
# RPMI-8226 = system: RPMI-8226
# BT-549 = system: BT-549
# OVCAR-8 = system: OVCAR-8
# RXF 393 = system: RXF 393
# SF-268 = system: SF-268
# A549 = system: A549
# UACC-62 = system: UACC-62
# OVCAR-3 = system: OVCAR-3
# SW-620 = system: SW-620
# MDA-N = system: MDA-N
# A498 = system: A498
# MDA-MB-435 = system: MDA-MB-435
# SR = system: SR
# 786-0 = system: 786-0
# PC-3 = system: PC-3
# NCI-H460 = system: NCI-H460
# UO-31 = system: UO-31
# CCRF-CEM = system: CCRF-CEM
# HT-29 = system: HT-29
# SF-539 = system: SF-539
# SF-295 = system: SF-295
# HOP-62 = system: HOP-62
# OVCAR-5 = system: OVCAR-5
# MDA-MB-231 = system: MDA-MB-231
# HL-60 = system: HL-60
# SK-MEL-2 = system: SK-MEL-2
# TK-10 = system: TK-10
# EKVX = system: EKVX
# UACC-257 = system: UACC-257
# HCT-15 = system: HCT-15
# MOLT-4 = system: MOLT-4
# COLO 205 = system: COLO 205
# SK-MEL-28 = system: SK-MEL-28
# DU-145 = system: DU-145
# U-251 = system: U-251
# T47D = system: T47D
# CAKI-1 = system: CAKI-1
# SNB-19 = system: SNB-19
# NCI-H522 = system: NCI-H522
# HCT-116 = system: HCT-116
# KM-20L2 = system: KM-20L2
# DMS-273 = system: DMS-273
# DLD-1 = system: DLD-1
# LXFL 529 = system: LXFL 529
# DMS-114 = system: DMS-114
# SNB-78 = system: SNB-78
# M19-MEL = system: M19-MEL
structure (smiles),measurement,setting,value
C[n+]1cccc2ccc3cccnc3c21,GI50,Hs-578T,12.7 µM (inactive)
same,GI50,KM12,9.08 µM (inactive)
same,GI50,SNB-75,23.6 µM (inactive)
same,GI50,NCI/ADR-RES,> 100 µM (inactive)
same,GI50,NCI-H226,20.6 µM (inactive)
same,GI50,HOP-92,57.7 µM (inactive)
same,GI50,K562,> 100 µM (inactive)
same,GI50,M14,44.7 µM (inactive)
same,GI50,LOX IMVI,29 µM (inactive)
same,GI50,IGROV-1,76 µM (inactive)
same,GI50,SN12C,35.1 µM (inactive)
same,GI50,SK-MEL-5,16.2 µM (inactive)
same,GI50,OVCAR-4,33.8 µM (inactive)
same,GI50,ACHN,20.9 µM (inactive)
same,GI50,HCC 2998,49.2 µM (inactive)
same,GI50,MCF7,38.5 µM (inactive)
same,GI50,NCI-H23,18.2 µM (inactive)
same,GI50,Malme-3M,16.1 µM (inactive)
same,GI50,SK-OV-3,47.6 µM (inactive)
same,GI50,RPMI-8226,4.91 µM (inactive)
same,GI50,BT-549,31.7 µM (inactive)
same,GI50,OVCAR-8,12.3 µM (inactive)
same,GI50,RXF 393,46.3 µM (inactive)
same,GI50,SF-268,17.6 µM (inactive)
same,GI50,A549,5.64 µM (inactive)
same,GI50,UACC-62,55.3 µM (inactive)
same,GI50,OVCAR-3,26.3 µM (inactive)
same,GI50,SW-620,32.4 µM (inactive)
same,GI50,MDA-N,67.5 µM (inactive)
same,GI50,A498,32.5 µM (inactive)
same,GI50,MDA-MB-435,69.2 µM (inactive)
same,GI50,SR,> 100 µM (inactive)
same,GI50,786-0,63.5 µM (inactive)
same,GI50,PC-3,27.5 µM (inactive)
same,GI50,NCI-H460,23.2 µM (inactive)
same,GI50,UO-31,21.8 µM (inactive)
same,GI50,CCRF-CEM,> 100 µM (inactive)
same,GI50,HT-29,28.2 µM (inactive)
same,GI50,SF-539,48 µM (inactive)
same,GI50,SF-295,43.6 µM (inactive)
same,GI50,HOP-62,19.5 µM (inactive)
same,GI50,OVCAR-5,82 µM (inactive)
same,GI50,MDA-MB-231,83.6 µM (inactive)
same,GI50,HL-60,> 100 µM (inactive)
same,GI50,SK-MEL-2,19.3 µM (inactive)
same,GI50,TK-10,27.5 µM (inactive)
same,GI50,EKVX,6.84 µM (inactive)
same,GI50,UACC-257,41.9 µM (inactive)
same,GI50,HCT-15,61.8 µM
same,GI50,MOLT-4,> 100 µM (inactive)
same,GI50,COLO 205,17.7 µM (inactive)
same,GI50,SK-MEL-28,55.7 µM (inactive)
same,GI50,DU-145,49.9 µM (inactive)
same,GI50,U-251,18.5 µM (inactive)
same,GI50,T47D,21 µM (inactive)
same,GI50,CAKI-1,> 100 µM (inactive)
same,GI50,SNB-19,30.8 µM (inactive)
same,GI50,NCI-H522,10 µM (inactive)
same,GI50,HCT-116,19.4 µM (inactive)
COc1cc(C(=O)O)cc2c1[nH]c1ccccc12 [MUKOEIC ACID],GI50,KM-20L2,> 25 µM (inactive)
same,GI50,KM12,> 25 µM (inactive)
same,GI50,NCI-H226,> 25 µM (inactive)
same,GI50,HOP-92,> 25 µM (inactive)
same,GI50,K562,> 25 µM (inactive)
same,GI50,M14,> 25 µM (inactive)
same,GI50,LOX IMVI,> 25 µM (inactive)
same,GI50,IGROV-1,> 25 µM (inactive)
same,GI50,SN12C,> 25 µM (inactive)
same,GI50,DMS-273,> 25 µM (inactive)
same,GI50,SK-MEL-5,> 25 µM (inactive)
same,GI50,OVCAR-4,> 25 µM (inactive)
same,GI50,ACHN,> 25 µM (inactive)
same,GI50,DLD-1,> 25 µM (inactive)
same,GI50,HCC 2998,> 25 µM (inactive)
same,GI50,Malme-3M,> 25 µM (inactive)
same,GI50,SK-OV-3,> 25 µM (inactive)
same,GI50,RPMI-8226,> 25 µM (inactive)
same,GI50,OVCAR-8,> 25 µM (inactive)
same,GI50,SF-268,> 25 µM (inactive)
same,GI50,A549,> 25 µM (inactive)
same,GI50,UACC-62,> 25 µM (inactive)
same,GI50,OVCAR-3,> 25 µM (inactive)
same,GI50,SW-620,> 25 µM (inactive)
same,GI50,LXFL 529,> 25 µM (inactive)
same,GI50,SR,> 25 µM (inactive)
same,GI50,786-0,> 25 µM (inactive)
same,GI50,DMS-114,> 25 µM (inactive)
same,GI50,NCI-H460,> 25 µM (inactive)
same,GI50,UO-31,> 25 µM (inactive)
same,GI50,CCRF-CEM,> 25 µM (inactive)
same,GI50,HT-29,> 25 µM (inactive)
same,GI50,SF-539,> 25 µM (inactive)
same,GI50,HOP-62,> 25 µM (inactive)
same,GI50,OVCAR-5,> 25 µM (inactive)
same,GI50,HL-60,> 25 µM (inactive)
same,GI50,SK-MEL-2,> 25 µM (inactive)
same,GI50,TK-10,> 25 µM (inactive)
same,GI50,HCT-15,> 25 µM
same,GI50,MOLT-4,> 25 µM (inactive)
same,GI50,COLO 205,> 25 µM (inactive)
same,GI50,SK-MEL-28,> 25 µM (inactive)
same,GI50,U-251,> 25 µM (inactive)
same,GI50,SNB-78,> 25 µM (inactive)
same,GI50,SNB-19,> 25 µM (inactive)
same,GI50,M19-MEL,> 25 µM (inactive)
same,GI50,NCI-H522,> 25 µM (inactive)
same,GI50,HCT-116,> 25 µM (inactive)
